Results on ten compounds are retold here after patent US5972958A, “4-aminoalkoxy-1,3-dihydro-benzoimidazol-2-thiones” (American Home Products Corporation, priority 1998, dated 1999).

Experiment [1] deals with T1, dopamine D2 receptor (Rattus norvegicus, UniProt P61169). Description: Affinity for the dopamine D-2 receptor, 3H-spiroperidol (D2 Spiper) binding in homogenized limbic brain tissue. The arrangement: homogenized limbic brain tissue; from tissue; host or cells: limbic brain tissue (homogenate). The conditions noted are these: low-affinity agonist state. Here is the method:
High affinity for the dopamine D-2 receptor was established by the standard experimental test procedure of Fields, et al., Brain Res., 136, 578 (1977) and Yamamura et al., eds., Neurotransmitter Receptor Binding, Raven Press, N.Y. (1978) wherein homogenized limbic brain tissue is incubated with ^3 H-spiroperidol (Spiper.) and various concentrations of test compound, filtered and washed and shaken with Hydrofluor scintillation cocktail (National Diagnostics) and counted in a Packard 460 CD scintillation counter.

Experiment [2] concerns the target T1, dopamine D2 receptor. Description: Affinity for the dopamine autoreceptor, 3H-quinpirole (D2 Quin.) binding in homogenized rat striatal brain tissue. On the set-up: homogenized rat striatal brain tissue; from tissue; host or cells: rat striatal brain tissue (homogenate). The conditions noted are these: high-affinity agonist state. Here is the method: Affinity for the dopamine autoreceptor was established by a modification of the standard experimental test procedure of Seemen and Schaus, European Journal of Pharmacology 203: 105-109, 1991, wherein homogenized rat striatal brain tissue is incubated with ^3 H-quinpirole (Quin.) and various concentrations of test compound, filtered and washed and counted in a Betaplate scintillation counter.

T1 sequence (P61169 whole entry): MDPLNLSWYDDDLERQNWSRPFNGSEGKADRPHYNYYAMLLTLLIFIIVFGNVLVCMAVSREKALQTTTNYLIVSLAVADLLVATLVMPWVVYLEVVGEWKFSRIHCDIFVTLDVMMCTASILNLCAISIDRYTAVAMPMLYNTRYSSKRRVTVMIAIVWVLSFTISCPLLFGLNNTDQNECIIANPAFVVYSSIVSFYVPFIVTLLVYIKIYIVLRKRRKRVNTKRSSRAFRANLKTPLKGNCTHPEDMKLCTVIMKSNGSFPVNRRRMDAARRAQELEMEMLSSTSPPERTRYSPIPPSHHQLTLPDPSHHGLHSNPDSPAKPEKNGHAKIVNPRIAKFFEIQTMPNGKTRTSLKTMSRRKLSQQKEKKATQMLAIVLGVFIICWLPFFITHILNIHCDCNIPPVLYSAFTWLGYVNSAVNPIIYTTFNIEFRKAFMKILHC

Consider `S=c1[nH]c2cccc(OCCNCc3ccccc3)c2[nH]1` [Example 1, 4-(2-Benzylamino-ethoxy)-1,3-dihydro-benzoimidazol-2-thione], for which the IC50 at dopamine D2 receptor [1] is 33.4 nM; on dopamine D2 receptor [2], 0.36 nM.
The corresponding values for `Cc1ccc(CNCCOc2cccc3[nH]c(=S)[nH]c23)cc1` [Example 2, 4-[2-(4-Methyl-benzylamino)-ethoxy]-1,3-dihydro-benzoimidazole-2-thione] are 37.7 nM and 0.42 nM.
Regarding `S=c1[nH]c2cccc(OCCCNCc3ccccc3)c2[nH]1` [Example 3], the IC50 is 1190 nM on dopamine D2 receptor [1] and 14.9 nM at dopamine D2 receptor [2].
In the same order, the values of `S=c1[nH]c2cccc(OCCNCc3cccc4ccccc34)c2[nH]1` [Example 4, 4-{2-[(Naphthalen-1-ylmethyl)-amino]-ethoxy}-1,3-dihydro-benzoimidazole-2-thione] are 36.9 nM and 0.43 nM.
The corresponding values for `CC(C)(C)c1ccc(CNCCOc2cccc3[nH]c(=S)[nH]c23)cc1` [Example 5, 4-[2-(4-tert-Butyl-benzylamino)-ethoxy]-1,3-dihydro-benzoimidazole-2-thione] are 6.87 nM and 0.82 nM.
With `S=c1[nH]c2cccc(OCCNCc3ccc(Cl)cc3)c2[nH]1` [Example 6, 4-[2-(4-Chloro-benzylamino)-ethoxy]-1,3-dihydro-benzoimidazole-2-thione], the IC50 at dopamine D2 receptor [1] turned out to be 88 nM; on dopamine D2 receptor [2], 0.21 nM.
In the same order, the values of `Sc1nc2c(OCCNCc3ccccc3)cc(Cl)cc2[nH]1` [Example 7, 4-(2-Benzylamino-ethoxy)-6-chloro-1,3-dihydro-benzoimidazole-2-thione] are 57 nM and 0.39 nM.
In the same order, the values of `S=c1[nH]c2cc(Cl)cc(OCCNCc3cccs3)c2[nH]1` [Example 8, 6-Chloro-4-{2-[(thiophen-2-ylmethyl)-amino]-ethoxy}-1,3-dihydro-benzoimidazole-2-thione] are 88 nM and 0.37 nM.
The corresponding values for `S=c1[nH]c2cc(Cl)cc(OCCNCc3ccsc3)c2[nH]1` [Example 9, 6-Chloro-4-{2-[(thiophen-3-ylmethyl)-amino]-ethoxy}-1,3-dihydro-benzoimidazole-2-thione] are 85 nM and 0.18 nM.
`S=c1[nH]c2cccc(OCCN3CCc4ccccc4C3)c2[nH]1` [Example 10, 4-[2-(3,4-Dihydro-1H-isoquinolin-2-yl)-ethoxy]-1,3-dihydro-benzoimidazole-2-thione]: the IC50 on dopamine D2 receptor [1] worked out at 234 nM; on dopamine D2 receptor [2], 2.67 nM.
